Data reported in patent US5314896A, “1,3-substituted cycloalkenes and cycloalkanes as central nervous system agents” (priority 1992, dated 1994).
Like-named read-outs stand apart in the source and are kept apart here.

Legend:
dopamine receptors [1] = assay: Comparison of 1,3 versus 1,4 series activity (binding and locomotor activity), results in words; conditions: Table 2
Protocol: (§1) Thus, the compounds of Formula I were tested for their ability to inhibit locomotor activity in mice and rats, a measure of antipsychotic activity, according to the assay described by J. R. McLean, et al, Pharmacology, Biochemistry and Behavior, Vol. 8, pages 97-99 (1978); for their ability to bind to dopamine receptors as measured by their inhibition of [^3 H]spiroperidol binding in a receptor assay described by D. Grigoriadis and P. Seeman, Journal of Neurochemistry, Vol. 44, pages 1925-1935 (1985); and for their ability to effect dopamine synthesis in rats according to the protocol described by J. R. Walters and R. H. Roth, Naunyn-Schmiedebero's Archives of Pharmacology, Vol. 296, pages 5-14 (1976). The above test methods are incorporated herein by reference.
(§2) The most important test is the locomotor activity orally in the rat as this corresponds most closely to human oral administration of an antipsychotic compound.

[2] = test system: Locomotor Activity in Mice; assay: Inhibition of locomotor activity in mice; type: in vivo; conditions: for ED50: Mus musculus
Protocol: as §1, with “The compounds of Formula I are valuable dopaminergic agents. […] Thus,” for “Thus,”, “reference. The data in the table show the dopaminergic activity of representative compounds of Formula I.” for “reference.”

dopamine receptors [3] = assay: Inhibition of [^3 H] spiroperidol binding
Protocol: as §1, with “The compounds of Formula I are valuable dopaminergic agents. […] Thus,” for “Thus,”, “reference. The data in the table show the dopaminergic activity of representative compounds of Formula I.” for “reference.”

Brain Dopamine Synthesis = assay: % effects on brain dopamine synthesis in rats; type: in vivo; conditions: for change in vivo at 10 mg/kg: Rattus norvegicus
Protocol: as §1, with “The compounds of Formula I are valuable dopaminergic agents. […] Thus,” for “Thus,”, “reference. The data in the table show the dopaminergic activity of representative compounds of Formula I.” for “reference.”

[4] = test system: Locomotor Activity in Rats; assay: Inhibition of locomotor activity in rats (oral); type: in vivo
Protocol: as §1, §2

[5] = mice, IP (Table 2), read-out: Inhibition of Locomotor Activity in Mice ED50
[6] = ip, read-out: Inhibition of Locomotor Activity in Mice ED50, mice, IP (Table 1)
[7] = ip, read-out: % Effects on Brain Dopamine Synthesis in Rats, rats, 10 mg/kg, IP (Table 1)
[8] = mice, IP (Table 1), read-out: Inhibition of Locomotor Activity in Mice ED50
[9] = rats, 10 mg/kg, IP (Table 1), read-out: % Effects on Brain Dopamine Synthesis in Rats

SMILES: C1=C(c2ccccc2)CC(N2CCN(c3ccccn3)CC2)CC1 (racemic) [Compound J, (±)-1-(3-phenyl-3-cyclohexen-1-yl)-4-(2-pyridinyl)piperazine, reference compound]
- binding and locomotor activity (dopamine receptors [1]): essentially inactive
- ED50 [2, 5]: 28.2 mg/kg
- IC50 (dopamine receptors [3]; Table 2): 9850 nM

SMILES: C1=C(c2ccccc2)CCN(CC2CCC=C(c3ccccc3)C2)C1 (racemic) [Example 1, (±)-1,2,3,6-Tetrahydro-4-phenyl-1-[(3-phenyl-3-cyclohexen-1-yl)methyl]pyridine]
- binding and locomotor activity (dopamine receptors [1]): surprisingly much more active in its binding and locomotor activity
- ED50 [2, 6]: 1.6 mg/kg
- ED50 ([2]; ip, read-out: Inhibition of Locomotor Activity in Mice ED50, mice, IP (Table 2)): 1.6 mg/kg
- change in vivo at 10 mg/kg (Brain Dopamine Synthesis; [7]): -86%
- IC50 (dopamine receptors [3]; Table 1): 72 nM
- IC50 (dopamine receptors [3]; Table 2): 72 nM
- locomotor activity orally in the rat ([4]; Table 2 compounds): clearly the most potent
- times more active than the 1,4 Compound C, locomotor activity orally in the rat ([4]; versus Compound C): 4.8 times

SMILES: C1=C(c2ccccc2)CC(CN2CCN(c3ccccn3)CC2)CC1 (racemic) [Example 4, (±)-1-[(3-phenyl-3-cyclohexen-1-yl)methyl]-4-(2-pyridinyl)piperazine]
- binding and locomotor activity (dopamine receptors [1]): very potent
- ED50 [2, 8]: 0.85 mg/kg
- change in vivo at 10 mg/kg (Brain Dopamine Synthesis; [9]): -61%
- IC50 (dopamine receptors [3]; Table 1): 141 nM
- IC50 (dopamine receptors [3]; Table 2): 141 nM

SMILES: Fc1ccc(C2=CC(CN3CCN(c4ccccn4)CC3)CCC2)cc1 (racemic) [Example 5a, (±)-1-[[3-(4-Fluorophenyl)-2-cyclohexen-1-yl]methyl]-4-(2-pyridinyl)piperazine]
- ED50 [2, 8]: 2.2 mg/kg
- change in vivo at 10 mg/kg (Brain Dopamine Synthesis; [9]): -48%
- IC50 (dopamine receptors [3]; Table 1): 279 nM

SMILES: C1=C(c2ccccc2)CC(CN2CCN(c3ccccn3)CC2)C1 (racemic) [Example 25, (±)-1-[(3-phenyl-3-cyclopenten-1-yl)methyl]-4-(2-pyridinyl)piperazine]
- ED50 [2, 8]: 2.7 mg/kg
- change in vivo at 10 mg/kg (Brain Dopamine Synthesis; [9]): -45%
- IC50 (dopamine receptors [3]; Table 1): 190 nM

SMILES: C1=C(c2ccccc2)CCN(CC2CCC=C(c3c[nH]c4ccccc34)C2)C1 (racemic) [Example 26, (±)-3-[5-[(3,6-dihydro-4-phenyl-1(2H)-pyridinyl)methyl]-1-cyclohexen-1-yl]-1H-indole]
- ED50 [2, 6]: 2 mg/kg
- change in vivo at 10 mg/kg (Brain Dopamine Synthesis; [7]): -23%
- IC50 (dopamine receptors [3]; Table 1): 288 nM

SMILES: C1=C(c2ccccc2)CCC(N2CCN(c3ccccn3)CC2)C1 (racemic) [F, (±)-1-(4-phenyl-3-cyclohexen-1-yl)-4-(2-pyridinyl)piperazine, reference compound]
- binding and locomotor activity (dopamine receptors [1]): much more active than Compound G
- ED50 [2, 5]: 1.01 mg/kg
- IC50 (dopamine receptors [3]; Table 2): 599 nM

SMILES: C1=C(c2ccccc2)CCC(CCN2CCN(c3ccccn3)CC2)C1 (racemic) [H, (±)-1-[(4-phenyl-3-cyclohexen-1-yl)ethyl]-4-(2-pyridinyl)piperazine, reference compound]
- binding and locomotor activity (dopamine receptors [1]): much more active than Compound G
- ED50 [2, 5]: 1.1 mg/kg
- IC50 (dopamine receptors [3]; Table 2): 409 nM

SMILES: C1=C(c2ccccc2)CCN(CC2CCC=C(c3ccccc3)C2)C1 (single isomer, unassigned; (+)) [Example 6, (+)-1,2,3,6-Tetrahydro-4-phenyl-1-[(3-phenyl-3-cyclohexen-1-yl)methyl]pyridine]
- Inhibition of Locomotor Activity in Mice ED50 ([2]; mice, IP (Table 1)): 1.0 mg/kg
- % Effects on Brain Dopamine Synthesis in Rats (Brain Dopamine Synthesis; rats, 10 mg/kg, IP (Table 1)): -50%
- IC50 (dopamine receptors [3]; Table 1): 227 nM

SMILES: C1=C(c2ccccc2)CCN(CC2CCC=C(c3ccccc3)C2)C1 (single isomer, unassigned; (-)) [Example 6a, (-)-1,2,3,6-Tetrahydro-4-phenyl-1-[(3-phenyl-3-cyclohexen-1-yl)methyl]pyridine]
- Inhibition of Locomotor Activity in Mice ED50 ([2]; mice, IP (Table 1)): 5.6 mg/kg
- % Effects on Brain Dopamine Synthesis in Rats (Brain Dopamine Synthesis; rats, 10 mg/kg, IP (Table 1)): -34%
- IC50 (dopamine receptors [3]; Table 1): 420 nM

SMILES: Fc1ccc(C2=CCC[C@@H](CN3CC=C(c4ccccc4)CC3)C2)cc1 [Example 8, (R)-1-[[3-(4-fluorophenyl)-3-cyclohexen-1-yl]methyl]-1,2,3,6-tetrahydro-4-phenylpyridine]
- ED50 [2, 6]: 4 mg/kg
- change in vivo at 10 mg/kg (Brain Dopamine Synthesis; [7]): -74%
- IC50 (dopamine receptors [3]; Table 1): 76 nM

SMILES: Cc1ccc(C2=CCC[C@@H](CN3CC=C(c4ccccc4)CC3)C2)cc1 [Example 9, (R)-1,2,3,6-tetrahydro-1-[[3-(4-methylphenyl)-3-cyclohexen-1-yl]methyl]-4-phenylpyridine]
- ED50 [2, 6]: 0.8 mg/kg
- change in vivo at 10 mg/kg (Brain Dopamine Synthesis; [7]): -42%
- IC50 (dopamine receptors [3]; Table 1): 184 nM

SMILES: C1=C(c2ccccc2)CCN(C[C@@H]2CCC=C(c3cccs3)C2)C1.Cl [Example 10, (R)-1,2,3,6-tetrahydro-4-phenyl-1-[[3-(2-thienyl)-3-cyclohexen-1-yl]methyl]pyridine monohydrochloride]
- ED50 [2, 6]: 1.6 mg/kg
- change in vivo at 10 mg/kg (Brain Dopamine Synthesis; [7]): -54%
- IC50 (dopamine receptors [3]; Table 1): 79 nM

SMILES: C1=C(c2ccccc2)CCN(C[C@H]2C=C(c3cccs3)CCC2)C1.Cl [Example 10a, (R)-1,2,3,6-tetrahydro-4-phenyl-1-[[3-(2-thienyl)-2-cyclohexen-1-yl]methyl]pyridine monohydrochloride]
- ED50 [2, 6]: 1.5 mg/kg
- change in vivo at 10 mg/kg (Brain Dopamine Synthesis; [7]): -58%
- IC50 (dopamine receptors [3]; Table 1): 110 nM

SMILES: COc1ccc(C2=CCC[C@@H](CN3CC=C(c4ccccc4)CC3)C2)cc1.Cl [Example 11, (R)-1,2,3,6-tetrahydro-1-[[3-(4-methoxyphenyl)-3-cyclohexen-1-yl]methyl]-4-phenylpyridine monohydrochloride]
- ED50 [2, 6]: 0.37 mg/kg
- change in vivo at 10 mg/kg (Brain Dopamine Synthesis; [7]): -47%
- IC50 (dopamine receptors [3]; Table 1): 100 nM

SMILES: C1=C(c2ccccc2)CCN(C[C@@H]2CCC=C(c3cccnc3)C2)C1.Cl [Example 12, (R)-3-[5-[(3,6-dihydro-4-phenyl-1(2H)-pyridinyl)methyl]-1-cyclohexen-1-yl]pyridine monohydrochloride]
- ED50 [2, 6]: 0.01 mg/kg
- change in vivo at 10 mg/kg (Brain Dopamine Synthesis; [7]): -85%
- IC50 (dopamine receptors [3]; Table 1): 82 nM

SMILES: C1=C(c2cccnc2)CCC[C@H]1CN1CC=C(c2ccccc2)CC1.Cl.Cl [Example 12a, (R)-3-[3-[(3,6-dihydro-4-phenyl-1(2H)-pyridinyl)methyl]-1-cyclohexen-1-yl]pyridine dihydrochloride]
- ED50 [2, 6]: 0.07 mg/kg
- change in vivo at 10 mg/kg (Brain Dopamine Synthesis; [7]): -97%
- IC50 (dopamine receptors [3]; Table 1): 87 nM

SMILES: CN(C)c1ccc(C2=CCC[C@@H](CN3CC=C(c4ccccc4)CC3)C2)cc1 [Example 16, (R)-4-[5-[(3,6-dihydro-4-phenyl-1(2H)-pyridinyl)methyl]-1-cyclohexen-1-yl]-N,N-dimethylbenzeneamine]
- ED50 [2, 6]: 0.2 mg/kg
- change in vivo at 10 mg/kg (Brain Dopamine Synthesis; [7]): -76%
- IC50 (dopamine receptors [3]; Table 1): 53 nM

SMILES: C1=C(c2ccccc2)CCN(C[C@@H]2CCC=C(c3cnc4ccccc4c3)C2)C1 [Example 17, (R)-3-[5-[(3,6-dihydro-4-phenyl-1(2H)-pyridinyl)methyl]-1-cyclohexen-1-yl]quinoline]
- ED50 [2, 6]: 0.23 mg/kg
- change in vivo at 10 mg/kg (Brain Dopamine Synthesis; [7]): -21%
- IC50 (dopamine receptors [3]; Table 1): 76 nM

SMILES: O=C(N[C@H]1CCC[C@@H](CN2CC=C(c3ccccc3)CC2)C1)c1ccccc1 [Example 19, (1S-cis)-N-[3-[(3,6-dihydro-4-phenyl-1(2H)-pyridinyl)methyl]cyclohexyl]benzamide]
- ED50 [2, 6]: 0.15 mg/kg
- change in vivo at 10 mg/kg (Brain Dopamine Synthesis; [7]): -95%
- IC50 (dopamine receptors [3]; Table 1): 34 nM

SMILES: C1=C(c2ccccc2)CCN(C[C@@H]2CCC[C@H](c3ccccc3)C2)C1.Cl [Example 20, (1R-cis) 1,2,3,6-tetrahydro-4-phenyl-1-[(3-phenylcyclohexyl)methyl]pyridine monohydrochloride]
- ED50 [2, 6]: 0.7 mg/kg
- change in vivo at 10 mg/kg (Brain Dopamine Synthesis; [7]): -100%
- IC50 (dopamine receptors [3]; Table 1): 71 nM

SMILES: C1=C(c2ccccc2)C[C@H](CN2CCN(c3ccccn3)CC2)CC1 [Example 21, (R)-1-[(3-Phenyl-3-cyclohexen-1-yl)methyl]-4-(2-pyridinyl)piperazine]
- ED50 [2, 8]: 9.9 mg/kg
- change in vivo at 10 mg/kg (Brain Dopamine Synthesis; [9]): -27%
- IC50 (dopamine receptors [3]; Table 1): 76 nM
